One assay deals with Myc mRNA. Nature of the assay: Inhibition of Myc expression (Myc mRNA) in MV4-11 cells. The class given is cell-based. As to conditions: Homo sapiens, 4 hours of treatment, read-out: EC50 range, Myc mRNA normalized to GAPDH mRNA. The source says:
Inhibition of Myc Expression.

Another assay has as its system MV4-11 cells. Nature of the assay: Inhibition of MV4-11 cell proliferation (Cell-Titer Glo). The class given is cell-based. As to conditions: Homo sapiens, 72 hours of growth, read-out: GI50 range. The protocol:
Inhibition of MV4-11 Cell Proliferation.
MV4-11 cells (5000 cells in 50 μl volumes) in growth medium containing 10% FBS and 1% Pen/Strep were plated and grown overnight in 96 well plates and treated the next day with 3-fold dilutions of test compounds or with DMSO vehicle. After 72 hours of growth, 30 ul of Cell-Titer Glo reagent (Promega) was added to the wells and the plates incubated for 30 minutes. Luminescence was measured on a Spectramax M5 plate reader and GI50 values were calculated for each test compound.

The structures appear in SMILES notation.

The source of these data is patent US20140243322A1, “BIVALENT BROMODOMAIN LIGANDS, AND METHODS OF USING SAME” (Coferon, Inc., priority 2011, published 2014).

As usually defined, the EC50 is the concentration giving half of the maximal effect. What is called GI50 is the concentration giving 50% growth inhibition.

As for `COc1ccc2c(c1)C(c1ccc(Cl)cc1)=N[C@@H](CC(=O)NCCOCCOCCOCCOCCOCCOCCNC(=O)C[C@@H]1N=C(c3ccc(Cl)cc3)c3cc(OC)ccc3-n3c(C)nnc31)c1nnc(C)n1-2` [BRD-B-18, (S)—N,N′-(3,6,9,12,15,18-hexaoxaicosane-1,20-diyl)bis(2-((S)-6-(4-chlorophenyl)-8-methoxy-1-methyl-4H-benzo[f][1,2,4]triazolo[4,3-a][1,4]diazepin-4-yl)acetamide)], the EC50 with Myc mRNA lay within 30 to 100 nM. Also, the concentration for 50% growth inhibition (GI50) in the assay with MV4-11 cells lay within 0.1 to 30 nM. Taken in the same sequence, the figures for `COc1ccc2c(c1)C(c1ccc(Cl)cc1)=N[C@@H](CC(=O)NCCOCCOCCOCCOCCOCCNC(=O)C[C@@H]1N=C(c3ccc(Cl)cc3)c3cc(OC)ccc3-n3c(C)nnc31)c1nnc(C)n1-2` [BRD-B-17, (S)—N,N′-(3,6,9,12,15-pentaoxaheptadecane-1,17-diyl)bis(2-((S)-6-(4-chlorophenyl)-8-methoxy-1-methyl-4H-benzo[f][1,2,4]triazolo[4,3-a][1,4]diazepin-4-yl)acetamide)] were 100 to 30000 nM and 30 to 100 nM. The matching figures for `COc1ccc2c(c1)C(c1ccc(Cl)cc1)=N[C@@H](CC(=O)NCCOCCOCCOCCOCCNC(=O)C[C@@H]1N=C(c3ccc(Cl)cc3)c3cc(OC)ccc3-n3c(C)nnc31)c1nnc(C)n1-2` [BRD-B-16, (S)—N,N′-(3,6,9,12-tetraoxatetradecane-1,14-diyl)bis(2-((S)-6-(4-chlorophenyl)-8-methoxy-1-methyl-4H-benzo[f][1,2,4]triazolo[4,3-a][1,4]diazepin-4-yl)acetamide)]: 30 to 100 nM and 30 to 100 nM. For the molecule `COc1ccc2c(c1)C(c1ccc(Cl)cc1)=N[C@@H](CC(=O)NCC(=O)NCCNC(=O)CNC(=O)C[C@@H]1N=C(c3ccc(Cl)cc3)c3cc(OC)ccc3-n3c(C)nnc31)c1nnc(C)n1-2` [BRD-B-11, (S)—N,N′-(ethane-1,2-diyl)bis(2-(2-((S)-6-(4-chlorophenyl)-8-methoxy-1-methyl-4H-benzo[f][1,2,4]triazolo[4,3-a][1,4]diazepin-4-yl)acetamido)acetamide)], the EC50 in the assay on Myc mRNA lay in the range of 100 to 30000 nM. The GI50 in the assay on MV4-11 cells lay in the range of 100 to 30000 nM.

Turning to `COc1ccc2c(c1)C(c1ccc(Cl)cc1)=N[C@@H](CC(=O)NCCNC(=O)CNC(=O)NCCNC(=O)C[C@@H]1N=C(c3ccc(Cl)cc3)c3cc(OC)ccc3-n3c(C)nnc31)c1nnc(C)n1-2` [BRD-B-09], the EC50 with Myc mRNA lay within 100 to 30000 nM. Besides, in the assay with MV4-11 cells, the GI50 was in the range of 100 to 30000 nM. Regarding `CCNC(=O)C[C@@H]1N=C(c2ccc(Cl)cc2)c2cc(OCCOCCOCCOCCOCCOCCNC(=O)C[C@@H]3N=C(c4ccc(Cl)cc4)c4cc(OC)ccc4-n4c(C)nnc43)ccc2-n2c(C)nnc21` [BRD-B-13, N-(17-(((4S)-6-(4-chlorophenyl)-4-(2-(ethylamino)-2-oxoethyl)-1-methyl-4H-benzo[f][1,2,4]triazolo[4,3-a][1,4]diazepin-8-yl)oxy)-3,6,9,12,15-pentaoxaheptadecyl)-2-((4S)-6-(4-chlorophenyl)-8-methoxy-1-methyl-4H-benzo[f][1,2,4]triazolo[4,3-a][1,4]diazepin-4-yl)acetamide], in the assay with Myc mRNA, the EC50 is 100 to 30000 nM. Further, the GI50 with MV4-11 cells lay within 0.1 to 30 nM. In the case of `CCNC(=O)C[C@@H]1N=C(c2ccc(Cl)cc2)c2cc(OCCOCCOCCOCCOCCOCCOCCOCCOCCNC(=O)C[C@@H]3N=C(c4ccc(Cl)cc4)c4cc(OC)ccc4-n4c(C)nnc43)ccc2-n2c(C)nnc21` [BRD-B-20, N-(26-(((4S)-6-(4-chlorophenyl)-4-(2-(ethylamino)-2-oxoethyl)-1-methyl-4H-benzo[f][1,2,4]triazolo[4,3-a][1,4]diazepin-8-yl)oxy)-3,6,9,12,15,18,21,24-octaoxahexacosyl)-2-((4S)-6-(4-chlorophenyl)-8-methoxy-1-methyl-4H-benzo[f][1,2,4]triazolo[4,3-a][1,4]diazepin-4-yl)acetamide], in the assay with Myc mRNA, the EC50 lay in the range of 0.1 to 30 nM. Moreover, the GI50 in the assay with MV4-11 cells lay in the range of 0.1 to 30 nM. Consider `CCNC(=O)C[C@@H]1N=C(c2ccc(Cl)cc2)c2cc(OCCOCCOCCOCCNC(=O)C[C@@H]3N=C(c4ccc(Cl)cc4)c4cc(OC)ccc4-n4c(C)nnc43)ccc2-n2c(C)nnc21` [BRD-B-05, N-(2-(2-(2-(2-(((S)-6-(4-chlorophenyl)-4-(2-(ethylamino)-2-oxoethyl)-1-methyl-4H-benzo[f][1,2,4]triazolo[4,3-a][1,4]diazepin-8-yl)oxy)ethoxy)ethoxy)ethoxy)ethyl)-2-((S)-6-(4-chlorophenyl)-8-methoxy-1-methyl-4H-benzo[f][1,2,4]triazolo[4,3-a][1,4]diazepin-4-yl)acetamide], for which, in the assay on Myc mRNA, the EC50 lay in the range of 30 to 100 nM. Further, the GI50 in the assay with MV4-11 cells lay in the range of 0.1 to 30 nM.

In the case of `CCNC(=O)C[C@@H]1N=C(c2ccc(Cl)cc2)c2cc(OCCOCCOCCNC(=O)C[C@@H]3N=C(c4ccc(Cl)cc4)c4cc(OC)ccc4-n4c(C)nnc43)ccc2-n2c(C)nnc21` [BRD-B-04, N-(2-(2-(2-(((S)-6-(4-chlorophenyl)-4-(2-(ethylamino)-2-oxoethyl)-1-methyl-4H-benzo[f][1,2,4]triazolo[4,3-a][1,4]diazepin-8-yl)oxy)ethoxy)ethoxy)ethyl)-2-((S)-6-(4-chlorophenyl)-8-methoxy-1-methyl-4H-benzo[f][1,2,4]triazolo[4,3-a][1,4]diazepin-4-yl)acetamide], the EC50 with Myc mRNA was in the range of 0.1 to 30 nM. Besides, the GI50 in the assay with MV4-11 cells was in the range of 0.1 to 30 nM. `COc1ccc2c(c1)C(c1ccc(Cl)cc1)=N[C@@H](CC(=O)NCCOCCOCCOCCOCCOCCOCCOCCNC(=O)C[C@@H]1N=C(c3ccc(Cl)cc3)c3cc(OC)ccc3-n3c(C)nnc31)c1nnc(C)n1-2` [BRD-B-19, (S)—N,N′-(3,6,9,12,15,18,21-heptaoxatricosane-1,23-diyl)bis(2-((S)-6-(4-chlorophenyl)-8-methoxy-1-methyl-4H-benzo[f][1,2,4]triazolo[4,3-a][1,4]diazepin-4-yl)acetamide)]: in the assay on Myc mRNA, the EC50 was 100 to 30000 nM. Further, the GI50 in the assay on MV4-11 cells lay within 0.1 to 30 nM. The matching figures for `COc1ccc2c(c1)C(c1ccc(Cl)cc1)=N[C@@H](CC(=O)NCCNC(=O)CNC(=O)CNC(=O)C[C@@H]1N=C(c3ccc(Cl)cc3)c3cc(OC)ccc3-n3c(C)nnc31)c1nnc(C)n1-2` [BRD-B-08, 2-((S)-6-(4-chlorophenyl)-8-methoxy-1-methyl-4H-benzo[f][1,2,4]triazolo[4,3-a][1,4]diazepin-4-yl)-N-(2-(2-(2-(2-((S)-6-(4-chlorophenyl)-8-methoxy-1-methyl-4H-benzo[f][1,2,4]triazolo[4,3-a][1,4]diazepin-4-yl)acetamido)acetamido)acetamido)ethyl)acetamide]: 100 to 30000 nM and 100 to 30000 nM. `COc1ccc2c(c1)C(c1ccc(Cl)cc1)=N[C@@H](CC(=O)NCCOCCOCCOCCOCCOCCOCCOCCOCCNC(=O)C[C@@H]1N=C(c3ccc(Cl)cc3)c3cc(OC)ccc3-n3c(C)nnc31)c1nnc(C)n1-2` [BRD-B-22, (S)—N,N′-(3,6,9,12,15,18,21,24-octaoxahexacosane-1,26-diyl)bis(2-((4S)-6-(4-chlorophenyl)-8-methoxy-1-methyl-4H-benzo[1,2,4]triazolo[4,3-a][1,4]diazepin-4-yl)acetamide)]: the EC50 with Myc mRNA lay in the range of 30 to 100 nM. Further, the GI50 with MV4-11 cells lay in the range of 0.1 to 30 nM. `COc1ccc2c(c1)C(c1ccc(Cl)cc1)=N[C@@H](CC(=O)NCc1cccc(C3CCN(C(=O)C[C@@H]4N=C(c5ccc(Cl)cc5)c5cc(OC)ccc5-n5c(C)nnc54)CC3)c1)c1nnc(C)n1-2` [BRD-B-10, 2-((S)-6-(4-chlorophenyl)-8-methoxy-1-methyl-4H-benzo[f][1,2,4]triazolo[4,3-a][1,4]diazepin-4-yl)-N-(3-(1-(2-((S)-6-(4-chlorophenyl)-8-methoxy-1-methyl-4H-benzo[f][1,2,4]triazolo[4,3-a][1,4]diazepin-4-yl)acetyl)piperidin-4-yl)benzyl)acetamide]: the GI50 in the assay with MV4-11 cells fell in the range of 100 to 30000 nM. The same measure, in the same setting: with `CCNC(=O)C[C@@H]1N=C(c2ccc(Cl)cc2)c2cc(OCCNC(=O)C[C@@H]3N=C(c4ccc(Cl)cc4)c4cc(OC)ccc4-n4c(C)nnc43)ccc2-n2c(C)nnc21` [BRD-B-01, N-(2-(((S)-6-(4-chlorophenyl)-4-(2-(ethylamino)-2-oxoethyl)-1-methyl-4H-benzo[f][1,2,4]triazolo[4,3-a][1,4]diazepin-8-yl)oxy)ethyl)-2-((S)-6-(4-chlorophenyl)-8-methoxy-1-methyl-4H-benzo[f][1,2,4]triazolo[4,3-a][1,4]diazepin-4-yl)acetamide] the figure was 100 to 30000 nM. In the case of `Cc1ccc(-c2c(C)noc2C)cc1S(=O)(=O)NCCOCCOCCNS(=O)(=O)c1cc(-c2c(C)noc2C)ccc1C` [BRD-B-76, N,N′-((ethane-1,2-diylbis(oxy))bis(ethane-2,1-diyl))bis(5-(3,5-dimethylisoxazol-4-yl)-2-methylbenzenesulfonamide)], in the assay on Myc mRNA, the EC50 is 100 to 30000 nM. On the same count and under the same terms, the same measure for `CCNC(=O)C[C@@H]1N=C(c2ccc(Cl)cc2)c2cc(OCCOCCOCCOCCOCCOCCOCCOCCOCCOCCNC(=O)C[C@@H]3N=C(c4ccc(Cl)cc4)c4cc(OC)ccc4-n4c(C)nnc43)ccc2-n2c(C)nnc21` [BRD-B-21, N-(29-(((4S)-6-(4-chlorophenyl)-4-(2-(ethylamino)-2-oxoethyl)-1-methyl-4H-benzo[f][1,2,4]triazolo[4,3-a][1,4]diazepin-8-yl)oxy)-3,6,9,12,15,18,21,24,27-nonaoxanonacosyl)-2-((4S)-6-(4-chlorophenyl)-8-methoxy-1-methyl-4H-benzo[f][1,2,4]triazolo[4,3-a][1,4]diazepin-4-yl)acetamide]: 100 to 30000 nM.
